Source: patent publication US5162203A, “Methods of measuring isozymes and isozyme classes of alcohol dehydrogenase” (President and Fellows of Harvard College, priority 1989, dated 1992)

Key:
β1 γ1 ADH (Class I) = molecular target: T1, β1 γ1 ADH (Class I) (Homo sapiens, UniProt P00325+P00326); assay: Kinetics of enzymatic reduction of methoxynaphthaldehydes by β1γ1 ADH; assay type: biochemical; details: rate relative to ethanol oxidation at pH 10.0
T1 construct: beta1 (ADH1B*1) and gamma1 (ADH1C*1) alleles
T1 sequence (P00325 whole entry): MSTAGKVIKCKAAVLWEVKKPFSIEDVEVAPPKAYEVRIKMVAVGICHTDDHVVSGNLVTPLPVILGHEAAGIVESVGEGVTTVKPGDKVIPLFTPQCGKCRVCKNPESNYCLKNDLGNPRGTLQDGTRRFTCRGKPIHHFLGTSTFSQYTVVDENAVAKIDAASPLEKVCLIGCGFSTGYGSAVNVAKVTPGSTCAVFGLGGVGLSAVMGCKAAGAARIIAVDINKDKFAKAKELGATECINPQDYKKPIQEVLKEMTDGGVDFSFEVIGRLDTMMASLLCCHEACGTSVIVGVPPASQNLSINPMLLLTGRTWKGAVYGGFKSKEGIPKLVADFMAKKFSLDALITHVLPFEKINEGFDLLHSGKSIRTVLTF
T1 sequence (P00326 whole entry): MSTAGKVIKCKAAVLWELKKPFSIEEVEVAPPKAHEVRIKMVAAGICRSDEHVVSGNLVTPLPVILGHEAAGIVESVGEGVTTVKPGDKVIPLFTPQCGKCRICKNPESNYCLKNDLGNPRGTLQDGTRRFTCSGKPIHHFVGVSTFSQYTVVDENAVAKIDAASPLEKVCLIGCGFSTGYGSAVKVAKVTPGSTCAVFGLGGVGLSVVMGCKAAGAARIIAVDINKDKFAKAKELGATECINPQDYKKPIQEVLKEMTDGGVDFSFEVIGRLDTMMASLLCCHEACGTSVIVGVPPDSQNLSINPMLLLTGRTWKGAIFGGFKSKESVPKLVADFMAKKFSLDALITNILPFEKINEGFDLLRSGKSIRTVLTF

Class II (π) ADH = Class II (π) ADH (Homo sapiens, UniProt P08319); assay: Kinetics of enzymatic reduction of methoxynaphthaldehydes by Class II ADH; assay type: biochemical; details: for v/v (EtOH): rate relative to ethanol oxidation at pH 10.0
Chain of Class II (π) ADH (P08319 whole entry): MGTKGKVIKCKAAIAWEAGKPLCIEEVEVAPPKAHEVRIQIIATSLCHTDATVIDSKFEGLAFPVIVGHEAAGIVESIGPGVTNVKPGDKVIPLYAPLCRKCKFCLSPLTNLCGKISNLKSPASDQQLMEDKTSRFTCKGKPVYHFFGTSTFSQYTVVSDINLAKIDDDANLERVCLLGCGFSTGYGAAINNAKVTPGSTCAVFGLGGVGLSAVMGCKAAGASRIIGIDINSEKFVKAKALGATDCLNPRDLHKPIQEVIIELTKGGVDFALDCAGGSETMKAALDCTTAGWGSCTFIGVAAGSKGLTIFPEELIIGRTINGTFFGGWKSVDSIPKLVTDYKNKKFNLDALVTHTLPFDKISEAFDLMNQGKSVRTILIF

Class I ADH = assay: Kinetics of enzymatic reduction of methoxynaphthaldehydes by Class I ADH isozymes; assay type: biochemical, human; details: for kcat / Km: Table IV; for kcat: average for Class I isozymes except ββ forms; for Km: range over Class I isozymes
Protocol: (§1) Aldehyde reduction was monitored by following the decrease of absorption at 340 nm in 40 mM Mes buffer, pH 7.1. in the presence of saturating NADH, 50 μM for Class I and 100 μM for Class II. […] Initial reaction rates were measured and kinetic parameters determined by conventional procedures as described by Segel, 1975, Enzyme Kinetics, pp. 591-597, Wiley, N.Y.
(§2) All reaction mixtures (3 ml total volume) were prepared directly in 1 cm pathlength, 4 ml fluorometric cuvettes by adding 150 μl of the 300 μM substrate solution (e.g substrate IA or IIA) 100 μl of the 1 mM NADH solution (prepared as in part 5 above) and 2.69 ml of assay buffer (0.1M phosphate, pH 7.6). After thermal equilibration (25° C.) for 5 minutes, 60 μl of isozyme sample (either serum or purified ADH isozymes) was added to the cuvette.
(§3) The linear increase of fluorescence was then recorded for 1-10 minutes, until 0.03-1 μM of substrate was consumed. Larger substrate consumption was not found to be desirable (described in subpart (c) below). After this period the instrument sensitivity setting was reduced 10-30 fold, the signal compensated once again by zero suppression (see part 6 above), and 60 μl of 200-400 μM product (e.g., product IB or IIB) was added to provide an internal standard. The added product fluorescence intensity was then measured Fluorescence measurements were optimized for samples with low activity (<1 nM/minute). For samples with higher activity, repeat measurements were made with the serum volume reduced from 60 μl to 10 μl. Rates measured in the presence of the 0.2 mM ADH inhibitors. 4-MeP or 4-PeP, were made by adding 50 μl of 12 mM inhibitor to the cuvette prior to the assay buffer, and the reaction was carried out as above.
(§4) The rates of aldehyde reduction, determined as initial velocities (V) and expressed in units of nM/minute, were calculated according to: [formula] where the quantity in parentheses is the slope of the linear fluorescence increase calculated from the quantities Ft and FO, the fluorescence at time t and at the beginning of the reaction, respectively. Cst is the concentration of the product used as a standard added to the cuvette after the initial rate had been measured and Fst is the fluorescence intensity of the added product
Additionally the reaction rates for these isozymes were compared to those measured by the standard assay for ethanol oxidation (see part 7 above) at pH 10.0 the optimum for oxidation of ethanol by ADH. The rate of IA reduction for all Class I isozymes except the β1 β1 form is 1.5- to 4-fold faster than that of ethanol oxidation as measured by the conventional ethanol oxidation assay. […] Table III illustrates that IIA is an excellent substrate for Class II (.eta.) ADH, with a rate of IIA reduction at least 8-fold faster than that of ethanol oxidation.
The values for these constants were determined with purified Class II ADH or a mixture of purified Class I isozymes, under the fluorometric assay conditions described above in Example 1.

β2 β2 ADH (Class I) = molecular target: T2, β2 β2 ADH (Class I) (Homo sapiens, UniProt P00325); assay: Kinetics of enzymatic reduction of methoxynaphthaldehydes by β2β2 ADH; assay type: biochemical; details: Table IV; nm = not measurable
T2 construct: beta2 allele (ADH1B*2)
T2 sequence (P00325 2-375): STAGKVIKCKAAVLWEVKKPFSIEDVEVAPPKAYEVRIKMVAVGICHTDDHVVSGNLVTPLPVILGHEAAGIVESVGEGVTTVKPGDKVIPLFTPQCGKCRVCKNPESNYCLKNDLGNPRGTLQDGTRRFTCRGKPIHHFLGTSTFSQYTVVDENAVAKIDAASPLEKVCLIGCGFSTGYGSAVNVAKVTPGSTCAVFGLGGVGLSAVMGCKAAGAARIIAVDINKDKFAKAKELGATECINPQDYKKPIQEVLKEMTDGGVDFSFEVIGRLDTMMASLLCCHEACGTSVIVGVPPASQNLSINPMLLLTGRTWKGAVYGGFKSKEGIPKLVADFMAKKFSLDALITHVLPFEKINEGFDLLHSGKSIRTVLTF
Protocol: as §1
as §2, with “After thermal equilibration (25° C.) for 5 minutes, 60 μl of isozyme sample (either serum or purified ADH isozymes) was added to the cuvette.” left out
(§5) The linear increase of fluorescence was then recorded for 1-10 minutes, until 0.03-1 μM of substrate was consumed. […] The added product fluorescence intensity was then measured Fluorescence measurements were optimized for samples with low activity (<1 nM/minute). […] Rates measured in the presence of the 0.2 mM ADH inhibitors. […]
as §4, with “Cst is the concentration of the product used as a standard added to the cuvette after the initial rate had been measured and Fst is the fluorescence intensity of the added product” left out

human ADH isozymes = assay: Kinetics of enzymatic reduction of methoxynaphthaldehydes by ADH isozymes (general); assay type: biochemical
Protocol: as §1
as §2, with “After thermal equilibration (25° C.) for 5 minutes, 60 μl of isozyme sample (either serum or purified ADH isozymes) was added to the cuvette.” left out
as §5
as §4, with “Cst is the concentration of the product used as a standard added to the cuvette after the initial rate had been measured and Fst is the fluorescence intensity of the added product” left out

[1] = test system: ADH in human serum (Class I); assay: Fluorometric measurement of serum ADH activity with substrate IA; assay type: biochemical; details: between-run repeatability, 2 minutes reaction, n=5
Protocol: as §2
as §5, with “consumed. Larger substrate consumption was not found to be desirable (described in subpart (c) below).” for “consumed.”
as §4, with “added product […]” for “added product”

β1 β1 ADH (Class I) = assay: Kinetics of enzymatic reduction of methoxynaphthaldehydes by β1β1 ADH; assay type: biochemical, human; details: pH 7.0, 50 μM NADH; spectrophotometric
Class III (.chi.) ADH = Class III (.chi.) ADH (Homo sapiens, UniProt P11766); assay: Kinetics of enzymatic reduction of methoxynaphthaldehydes by Class III ADH; assay type: biochemical
Chain of Class III (.chi.) ADH (P11766 whole entry): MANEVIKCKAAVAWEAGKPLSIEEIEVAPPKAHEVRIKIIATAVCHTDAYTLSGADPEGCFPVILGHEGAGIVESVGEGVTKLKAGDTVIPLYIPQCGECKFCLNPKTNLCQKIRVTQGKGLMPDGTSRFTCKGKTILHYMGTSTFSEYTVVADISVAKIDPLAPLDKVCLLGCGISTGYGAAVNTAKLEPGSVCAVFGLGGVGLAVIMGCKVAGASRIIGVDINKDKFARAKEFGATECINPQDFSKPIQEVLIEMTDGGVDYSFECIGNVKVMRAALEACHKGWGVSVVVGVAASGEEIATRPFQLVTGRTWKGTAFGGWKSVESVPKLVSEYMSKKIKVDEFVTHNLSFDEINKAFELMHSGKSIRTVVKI

[2] = molecular target: ADH in human serum (Class II) (Homo sapiens, UniProt P08319); assay: Fluorometric measurement of serum ADH activity with substrate IIA; assay type: biochemical
Chain of ADH in human serum (Class II) (P08319 whole entry): as the sequence (P08319 whole entry) above
Protocol: as §2
as §3, with “For samples with higher activity, repeat measurements were made with the serum volume reduced from 60 μl to 10 μl.” left out, “4-MeP or 4-PeP, were made by adding 50 μl of 12 mM inhibitor to the cuvette prior to the assay buffer, and the reaction was carried out as above.” left out
as §4
Using the instrumentation described in Example 1, part 7, reaction rates as low as 6.5 nM/minute for IA and 25 nM/minute for IIA were reproducible. The limits of detection, i.e.. the point at which the fluorescence change after eight minutes becomes twice the noise level, were 1 nM/minute and 5 nM/minute for the two substrates, IA and IIA, respectively. […]

[3] = pH 7.0, 50 μM NADH, spectrophotometric

SMILES	v/v (EtOH) (β1 γ1 ADH (Class I))	kcat (Class II (π) ADH; [3]) [min⁻¹]	v/v (EtOH) (Class II (π) ADH)	kcat (Class I ADH) [min⁻¹]	Km (Class I ADH) [µM]	Km of most, in particular γ-containing Class I isozymes (human ADH isozymes)	Km (β1 β1 ADH (Class I)) [µM]	kcat (β1 β1 ADH (Class I)) [min⁻¹]	further results
COc1ccc(C=O)c2ccccc12 [IA, 4-methoxy-1-naphthaldehyde]	0.93	50	0.20	350	0.6 to 8.5	close to or below 1	4	2	a: ratio of specific rates for Class I to Class II ADH with IA as substrate (Class I ADH; fluorometric assay conditions): 0.022; Km (β2 β2 ADH (Class I)): nM; Average rate [1]: 144.8 nM/min
COc1ccc2cc(C=O)ccc2c1 [IIA, 6-methoxy-2-naphthaldehyde]	0.53	1500	8.0	110	0.4 to 11.5	close to or below 1	5.4	77	kcat for Class II relative to Class I isozymes (Class II (π) ADH): 10 fold; kcat (Class II (π) ADH; Class II): 1500 min⁻¹; rate of reduction relative to ethanol oxidation (Class II (π) ADH; Class II ADH): at least 8 fold; Km (Class III (.chi.) ADH; Class III ADH): > 500 µM; Km (Class III (.chi.) ADH; pH 7.0, 50 μM NADH, NR = no reaction detected): > 500 µM; substrate quality for Class III ADH (Class III (.chi.) ADH; words): very poor substrate; rate of reduction versus ethanol oxidation (Class I ADH; Class I isozymes, words): generally slower, but still comparable; d: ratio of specific rates for Class I ADH with IIA and IA as substrates (Class I ADH; average value): 0.27; ratio of specific rates for Class I to Class II ADH with IIA as substrate (Class I ADH; average value): 0.27; limit of detection ([2]; fluorescence change twice noise after eight minutes): 5 nM/min; lowest reproducible reaction rate ([2]; serum): 25 nM/min; serum activity for IIA ([2]; thirty of thirty six hospital patient sera, average): 15 ± 7 nM/min
